Test results from patent EP3638283B1, “ANTAGONISTS OF CAV2.3 R-TYPE CALCIUM CHANNELS FOR THE TREATMENT OF NEURODEGENERATIVE DISEASES” (Lario Therapeutics Ltd., priority 2017, dated 2018).
Where two headings read alike, the source gives them in different places.

Assays:
SN DA neurons [1] = format: cell-based, mouse
SN DA neurons [2] = format: cell-based, mouse; remark: listed apart in the source
[3] = biological target: T1, voltage-sensitive A-type Kv4.3 K+ channels (Homo sapiens, UniProt Q9UK17); settings: Kimm & Bean 2014; cited from earlier work
T1 sequence (Q9UK17 1-655): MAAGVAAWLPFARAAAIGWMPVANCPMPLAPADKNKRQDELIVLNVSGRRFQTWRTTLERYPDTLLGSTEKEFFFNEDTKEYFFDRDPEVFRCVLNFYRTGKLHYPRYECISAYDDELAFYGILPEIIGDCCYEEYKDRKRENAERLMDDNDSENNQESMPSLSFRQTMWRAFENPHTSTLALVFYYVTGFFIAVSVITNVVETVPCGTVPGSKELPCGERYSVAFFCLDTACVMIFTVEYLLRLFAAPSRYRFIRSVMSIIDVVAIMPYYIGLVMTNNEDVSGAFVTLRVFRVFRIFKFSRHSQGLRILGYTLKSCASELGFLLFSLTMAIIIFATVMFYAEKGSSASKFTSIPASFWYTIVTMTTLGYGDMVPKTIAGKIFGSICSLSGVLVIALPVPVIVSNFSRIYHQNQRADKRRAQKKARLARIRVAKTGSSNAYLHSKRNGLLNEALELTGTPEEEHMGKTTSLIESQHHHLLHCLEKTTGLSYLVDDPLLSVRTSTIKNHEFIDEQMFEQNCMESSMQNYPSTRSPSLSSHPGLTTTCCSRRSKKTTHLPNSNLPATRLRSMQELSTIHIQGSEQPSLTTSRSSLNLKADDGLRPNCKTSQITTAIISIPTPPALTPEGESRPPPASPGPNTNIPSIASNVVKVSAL

SN DA neurons [4] = assay: Dopamine auto-inhibition of SN DA neuron pacemaker activity, patch-clamp recordings in mouse brain slices; format: cell-based; settings: isradipine 300nM; dopamine 100 µM
SN DA neurons [5] = settings: cited from earlier work
SN DA neurons [6] = settings: neurotoxin PD-mouse models; pharmacological L-type calcium channel inhibition (Ilijic et al., 2011; Ortner et al., 2017); cited from earlier work
[7] = Parkinson Study, 2013; cited from earlier work

SNX-482
D2-AR responses of adult SN DA neurons (dopamine-autoinhibition) (SN DA neurons [1]): desensitized D2-AR responses | action potential-induced somatic Ca^2+ transients (SN DA neurons [2]): significantly reduced | affinity of inhibition of A-type Kv4.3 K+ channels [3]: high nanomolar affinity

COC(=O)C1=C(C)NC(C)=C(C(=O)OC(C)C)C1c1cccc2nonc12 (stereo not drawn) [isradipine]
sensitized dopamine-autoinhibition of SN DA neurons (SN DA neurons [4]): did not substantially alter | somatic activity-dependent Ca^2+ oscillations (SN DA neurons [5]; cell body of WT SN DA neurons, in the presence of isradipine (Ortner et al., 2017)): not significantly affected | sensitivity of activity-dependent Ca^2+ oscillations in SN DA neurons to the blocker (SN DA neurons [5]; distal dendrites versus cell-bodies (Guzman et al., 2010; Ortner et al.)): only in distal dendrites but not in the cell-bodies | SN DA neuroprotection (SN DA neurons [6]): inconclusive findings | maximal tolerable dosis [7]: 10 mg/day

ω-conotoxin MVIIC [[…]-conotoxin MVIIC]
sensitized dopamine-autoinhibition of SN DA neurons (SN DA neurons [1]): did not substantially alter
